We go through one compound from ChEMBL document CHEMBL3102714 (J Med Chem, 2013).

Common to all, as to assay type: cell-based
For assay [1], the target named is Neuronal acetylcholine receptor; alpha3/beta2 (Homo sapiens, UniProt P17787+P32297). Kind of assay: Antagonist activity at human alpha3beta2 nAChR expressed in Xenopus oocytes assessed as inhibition of ACh-induced current by voltage clamp electrophysiology method.
Assay [2] concerns the target Neuronal acetylcholine receptor; alpha3/alpha6/beta2/beta3 (Homo sapiens, UniProt P17787+P32297+Q05901+Q15825). Kind of assay: Antagonist activity at human alpha6/alpha3beta2beta3 nAChR expressed in Xenopus oocytes assessed as inhibition of ACh-induced current by voltage clamp electrophysiology method.
For assay [3], the target named is Neuronal acetylcholine receptor; alpha3/beta4 (Homo sapiens, UniProt P30926+P32297). Description: Antagonist activity at human alpha3beta4 nAChR expressed in Xenopus oocytes assessed as inhibition of ACh-induced current by voltage clamp electrophysiology method.
Assay [4] concerns the target Nicotinic acetylcholine receptor alpha6/alpha3/beta4 (Homo sapiens, UniProt P30926+P32297+Q15825). Description: Antagonist activity at human alpha6alpha3beta4 nAChR expressed in Xenopus oocytes assessed as inhibition of ACh-induced current by voltage clamp electrophysiology method.

Each structure is given as a SMILES string. Where a SMILES comes first, the peptide text is derived from it.

Sequence of Neuronal acetylcholine receptor; alpha3/alpha6/beta2/beta3 (P17787 whole entry): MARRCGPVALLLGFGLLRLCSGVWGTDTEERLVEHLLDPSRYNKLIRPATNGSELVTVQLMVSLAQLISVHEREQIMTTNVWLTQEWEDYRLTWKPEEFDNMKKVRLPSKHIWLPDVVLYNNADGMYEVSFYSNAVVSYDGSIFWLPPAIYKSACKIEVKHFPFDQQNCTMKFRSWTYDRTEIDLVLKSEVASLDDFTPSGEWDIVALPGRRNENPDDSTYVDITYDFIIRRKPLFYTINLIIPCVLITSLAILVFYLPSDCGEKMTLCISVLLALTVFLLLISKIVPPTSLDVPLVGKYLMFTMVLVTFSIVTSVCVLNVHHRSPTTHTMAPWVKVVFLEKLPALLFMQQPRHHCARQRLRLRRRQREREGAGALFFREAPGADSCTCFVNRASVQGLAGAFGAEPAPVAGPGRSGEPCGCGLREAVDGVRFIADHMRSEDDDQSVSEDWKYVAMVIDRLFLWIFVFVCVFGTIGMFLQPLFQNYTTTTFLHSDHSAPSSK
Sequence of Neuronal acetylcholine receptor; alpha3/alpha6/beta2/beta3 (P32297 whole entry): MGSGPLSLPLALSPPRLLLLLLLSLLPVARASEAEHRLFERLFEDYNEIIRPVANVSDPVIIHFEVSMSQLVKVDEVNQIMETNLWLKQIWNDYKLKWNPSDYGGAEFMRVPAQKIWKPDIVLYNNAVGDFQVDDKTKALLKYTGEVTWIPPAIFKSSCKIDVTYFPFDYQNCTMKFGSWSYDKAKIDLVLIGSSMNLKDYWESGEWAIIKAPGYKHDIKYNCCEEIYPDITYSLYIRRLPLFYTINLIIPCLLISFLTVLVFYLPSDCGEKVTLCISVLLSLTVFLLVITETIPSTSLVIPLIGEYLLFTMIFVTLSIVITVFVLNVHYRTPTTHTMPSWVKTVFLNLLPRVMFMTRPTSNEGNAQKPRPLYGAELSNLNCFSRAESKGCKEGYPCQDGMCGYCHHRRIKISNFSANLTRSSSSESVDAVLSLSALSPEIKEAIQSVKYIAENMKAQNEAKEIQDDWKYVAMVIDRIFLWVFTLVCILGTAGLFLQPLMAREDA
Sequence of Neuronal acetylcholine receptor; alpha3/alpha6/beta2/beta3 (Q15825 whole entry): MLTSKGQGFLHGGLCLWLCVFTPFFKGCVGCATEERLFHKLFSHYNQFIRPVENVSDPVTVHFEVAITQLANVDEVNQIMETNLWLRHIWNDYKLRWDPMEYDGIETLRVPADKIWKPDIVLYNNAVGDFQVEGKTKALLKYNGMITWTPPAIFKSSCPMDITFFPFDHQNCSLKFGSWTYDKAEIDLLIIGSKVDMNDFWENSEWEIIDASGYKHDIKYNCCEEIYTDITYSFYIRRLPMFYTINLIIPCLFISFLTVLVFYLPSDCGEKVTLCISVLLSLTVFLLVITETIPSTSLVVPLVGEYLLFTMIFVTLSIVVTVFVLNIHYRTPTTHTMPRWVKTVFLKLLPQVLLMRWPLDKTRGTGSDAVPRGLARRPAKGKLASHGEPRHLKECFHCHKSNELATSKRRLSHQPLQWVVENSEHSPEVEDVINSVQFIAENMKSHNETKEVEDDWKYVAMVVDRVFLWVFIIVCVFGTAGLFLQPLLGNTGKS
Sequence of Neuronal acetylcholine receptor; alpha3/alpha6/beta2/beta3 (Q05901 whole entry): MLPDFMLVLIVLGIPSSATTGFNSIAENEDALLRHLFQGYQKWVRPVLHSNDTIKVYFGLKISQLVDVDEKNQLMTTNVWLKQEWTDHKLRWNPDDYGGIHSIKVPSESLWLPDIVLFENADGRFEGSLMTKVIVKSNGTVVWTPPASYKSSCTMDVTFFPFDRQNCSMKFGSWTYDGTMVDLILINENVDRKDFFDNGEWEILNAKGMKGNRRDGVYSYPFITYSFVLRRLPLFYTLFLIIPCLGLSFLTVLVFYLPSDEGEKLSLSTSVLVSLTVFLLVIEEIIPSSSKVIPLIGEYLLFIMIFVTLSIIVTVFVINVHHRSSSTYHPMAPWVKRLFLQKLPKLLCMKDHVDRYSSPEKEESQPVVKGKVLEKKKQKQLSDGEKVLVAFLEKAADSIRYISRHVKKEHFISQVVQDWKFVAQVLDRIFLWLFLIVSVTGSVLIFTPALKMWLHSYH
Sequence of Neuronal acetylcholine receptor; alpha3/beta2 (P17787 whole entry): as the sequence (P17787 whole entry) above
Sequence of Neuronal acetylcholine receptor; alpha3/beta2 (P32297 whole entry): as the sequence (P32297 whole entry) above
Sequence of Neuronal acetylcholine receptor; alpha3/beta4 (P30926 whole entry): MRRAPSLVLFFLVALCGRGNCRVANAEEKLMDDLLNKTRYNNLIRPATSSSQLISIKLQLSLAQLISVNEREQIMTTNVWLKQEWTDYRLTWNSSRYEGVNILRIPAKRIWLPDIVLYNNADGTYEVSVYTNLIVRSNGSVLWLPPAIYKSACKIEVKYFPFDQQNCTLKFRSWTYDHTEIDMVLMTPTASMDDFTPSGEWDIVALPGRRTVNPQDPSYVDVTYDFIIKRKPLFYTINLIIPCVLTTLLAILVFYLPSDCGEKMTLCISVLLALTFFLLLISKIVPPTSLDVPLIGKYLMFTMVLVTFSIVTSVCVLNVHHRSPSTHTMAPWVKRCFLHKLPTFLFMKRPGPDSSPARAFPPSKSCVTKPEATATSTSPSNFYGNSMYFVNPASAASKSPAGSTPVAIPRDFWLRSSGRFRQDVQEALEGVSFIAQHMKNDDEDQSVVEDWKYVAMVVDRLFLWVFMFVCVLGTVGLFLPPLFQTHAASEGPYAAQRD
Sequence of Neuronal acetylcholine receptor; alpha3/beta4 (P32297 whole entry): as the sequence (P32297 whole entry) above
Sequence of Nicotinic acetylcholine receptor alpha6/alpha3/beta4 (P30926 whole entry): as the sequence (P30926 whole entry) above
Sequence of Nicotinic acetylcholine receptor alpha6/alpha3/beta4 (P32297 whole entry): as the sequence (P32297 whole entry) above
Sequence of Nicotinic acetylcholine receptor alpha6/alpha3/beta4 (Q15825 whole entry): as the sequence (Q15825 whole entry) above

On to `CC[C@H](C)[C@@H]1NC(=O)[C@H](CCC(N)=O)NC(=O)[C@@H]2CCCN2C(=O)[C@H](CC(N)=O)NC(=O)[C@H](Cc2cnc[nH]2)NC(=O)[C@H](C(C)C)NC(=O)[C@H]([C@@H](C)O)NC(=O)[C@@H]2CSSC[C@H](NC(=O)[C@@H]3CCCN3C(=O)[C@H](CC(=O)O)NC(=O)[C@@H](N)CCCN=C(N)N)C(=O)N[C@@H](CSSC[C@@H](C(N)=O)NC1=O)C(=O)N[C@@H](CO)C(=O)N[C@@H](CC(N)=O)C(=O)N1CCC[C@H]1C(=O)N[C@@H](C(C)C)C(=O)N2` (HELM PEPTIDE1{R.D.P.C.C.S.N.P.V.C.T.V.H.N.P.Q.I.C.[am]}$PEPTIDE1,PEPTIDE1,4:R3-10:R3|PEPTIDE1,PEPTIDE1,5:R3-18:R3$$$V2.0), for which the IC50 in assay [1] amounted to 0.0742 µM; in assay [2] it was 0.00095 µM; in assay [3], 0.518 µM; in assay [4], 0.0305 µM.
